The nature of data set [1]: Cytotoxicity in mammalian cells (CellTiter-Glo), J774. It is filed as cell-based. The following applies: mouse, J774 macrophage cells; J774 murine macrophage line; 72 h drug incubation; mean of three experiments; read-out: mammalian cells CC50 (±SEM), J774. As to the method: (§1) Cell lines J774 and HepG2 were incubated with the drug for 72 h, the same time frame as employed to determine antimalarial activity. Cytotoxicity was evaluated in parallel with ATV as a representative parental drug, while doxorubicin was used as a standard cytotoxic drug. These experiments were also used to estimate the in vitro selectivity index (Table 2).
(§2) Doxorubicin chloridrate (Eurofarma, São Paulo, Brazil) was used as a positive control, while untreated cells were employed as negative controls. Bioluminescence readings were performed using a Filtermax F5Multi-Mode instrument (Molecular Devices, Sunnyvale, CA) using the CellTiter-Glo kit (Promega Corporation, Madison, USA). Three independent experiments were performed and CC50 values were calculated.
In general terms: Cellular ATP, detected with luciferase, serves as a proxy for viable cell number.

Data set [2] relates to β-hematin crystal formation. The data set is described as follows: β-Hematin crystal formation by FTIR spectroscopy. It is filed as biochemical. The following applies: acid-buffered medium pH 5; 1:3 hematin/compound ratio. The method, then: The ability of these compounds to inhibit the formation of β-hematin crystals was investigated by IR spectroscopy (Figure 2f). Of note, β-hematin crystal formation was assayed in an acid-buffered medium, while hemin titration was assayed at neutral pH. […]. For both ATV and complexes 1–3, there may have been overlapping between a decrease in the (C = O) band of heme species and a (C = O) band of quinone. However, there was no danger of overlaps in the (C–O) band of heme species at 1210 cm^–1, since these species are absent from the drugs.
The conversion of hematin into β-hematin crystals was determined by FTIR spectroscopy as described previously.[52] In a microtube, 20 mg hemin and three equivalents of the compounds were dissolved in 3 mL 0.1 M NaOH solution and stirred for 30 min at 60 °C. Then, 0.3 mL 0.1 M HCl and 1.7 mL sodium acetate buffer (10 M, pH 5) were added at the same temperature. […] After incubation for 120 min, the reaction mixture was cooled on ice for 10 min and then centrifuged and washed with water to remove salts. Resulting crystals were dried and IR spectra were obtained using ATR mode.[66]−[68]

Data set [3] has as its system 3D7 strain of P. falciparum. The data set is described as follows: Coincubation of ATV with metal precursors, parasite growth inhibition (Figure 3C). It is filed as cell-based, Plasmodium falciparum. The following applies: ATV 1.0 nM, [Au(PPh3)Cl] and [Cu(PPh3)2NO3] at 1000 nM. As to the method: (§3) Figure 3 (A) Antiplasmodial activity of the compounds against the 3D7 strain of P. falciparum. (B) Cytotoxicity against the J774 cell line. In both cases, the compounds were diluted in cell culture and incubated for 0 or 72 h before use in the assays. […] In panels A and C, parasite viability was measured by HRP2 ELISA-based assay, and IC50 values were calculated. In panel B, cell viability was measured by CellTiter-Glo, and IC50 values were calculated. In panels A and B, the values are the mean and standard deviation of two independent experiments, using each concentration of compounds in duplicate. In panel C, the values are the mean and standard deviation of one experiment, using each concentration of compounds in quadruplicate. *p < 0.05; indicating significant difference by Student’s t test.
After ascertaining the existence of an association between the reactivity of the metal complexes and their pharmacological activity, we decided to evaluate whether they could be generated in situ upon coincubation of ATV and the respective metal precursors in the cell culture medium. In this set of experiments, ATV was added at 1.0 nM, while the metal precursors of gold(I) [Au(PPh3)Cl] and copper(I) [Cu(PPh3)2NO3] were added at 1000 nM (Figure 3C).

Data set [4] is described as follows: Buffer–n-octanol distribution coefficient (shaking flask method). As to the method:
The distribution coefficient (Log D), a proxy parameter to estimate drug lipophilicity, was assessed for ATV and its metal complexes 1–3.
Buffer–n-octanol distribution coefficients were determined using the shaking flask method.[73] A UV–vis calibration curve was prepared in the 10–100 μM range in n-octanol. […] The concentration of complex in n-octanol was measured spectrophotometrically in order to determine values of D = [compound] (in n-octanol)/[compounds] (in buffer).[66],[67]

Data set [5] is described as follows: Cytotoxicity in mammalian cells (CellTiter-Glo), HepG2. It is filed as cell-based. The following applies: HepG2 hepatocellular carcinoma cells; HepG2 human hepatocellular carcinoma line; 72 h drug incubation; mean of three experiments; read-out: mammalian cells CC50 (±SEM), HepG2. The method, then:
as §1, §2

In data set [6] the test system is P. falciparum W2 (CQ-resistant strain). The experiment in a line: Antiplasmodial activity, asexual blood stages, HRP2 ELISA-based assay, W2 strain. It is filed as cell-based, Plasmodium falciparum. The following applies: CQ-resistant W2 strain, 72 h drug incubation, mean of five to seven experiments, read-out: P. falciparum IC50 (±SEM), W2. As to the method:
The potency of the metal complexes to inhibit parasite growth was also examined in comparison with ATV.
The two strains were synchronized twice with sorbitol before use,[69] and clonality was verified every 15 days through PCR genotyping of the polymorphic genetic markers msp1 and msp2 and microsatellite loci.[70],[71] Compounds were resuspended in DMSO and then diluted in RPMI-DMSO (99v/1v) to obtain final concentrations ranging from 0.25 to 20000 nM.
After freezing and then thawing, the hemolyzed cultures were homogenized by vortexing the plates. The drug susceptibility assay was performed using the HRP2 ELISA-based assay of the Malaria Ag Celisa kit (ref KM2159, Cellabs PTY LDT, Brookvale, Australia), as described previously.[72]
A general note: ELISA stands for enzyme-linked immunosorbent assay.

The subject of data set [7] is 3D7 strain of P. falciparum. The experiment in a line: Antiplasmodial activity after preincubation of compounds in cell culture medium (Figure 3A). The following applies: compound preincubated 0 or 72 h in culture medium. It is filed as cell-based, Plasmodium falciparum. The method, then:
To understand the reason for the difference in antiplasmodial potency between monodentate complex 2 and bidentate complexes 1 and 3, we incubated all three metal complexes in cell culture media for different times before assessing their antiplasmodial activity (Figure 3A). The percentage of parasite growth inhibition in samples of cell culture medium containing complex 2 was reduced after 72 h incubation in comparison to freshly prepared samples (0 h). […] We interpret the loss in antiplasmodial activity for complex 2 as potentially resulting from ligand exchange reactions occurring in the culture medium before drug internalization into parasite cells. This denotes a higher lability for the monodentate complex 2 than for the bidentate complexes 1 and 3.
as §3

Another data set can be described thus: Solubility in solvents. It is filed as physicochemical. Particulars: for solubility in common organic solvents: dichloromethane, chloroform, dimethyl sulfoxide, acetone. The text has this:
(see Experimental Section). The chemical and physical characterization of ATV and the metal–ATV complexes are presented in the Supporting Information (Figures S1–S16). […] We attributed this band to a metal-to-ligand charge transfer (MLCT metal →π ATV naphthoquinone)[37] (Figures S3, S26–S28).

Another data set has as its system J774 cell line. The data set is described as follows: Cytotoxicity after preincubation of compounds in cell culture medium (Figure 3B). It is filed as cell-based, murine. The following applies: J774 cells; compound preincubated 0 or 72 h in culture medium. As to the method:
as §3
To further shed light on this, we performed the same experiment described above but assessing cytotoxicity in […] cells (Figure 3B). […] Our data also confirm not only drug stability but also the reactivity of the resulting products as important parameters.

Read-outs that look alike come from different tables or passages of the source.

On to `O=C1C(O)=C([C@H]2CC[C@H](c3ccc(Cl)cc3)CC2)C(=O)c2ccccc21` [ATV, atovaquone], for which the CC50 (usually the concentration that lowers cell viability or growth by half) at 72 h worked out at 19800 ± 1600 nM in data set [1] and 32400 ± 4800 nM in data set [5]. For the same compound, the “inhibition of β-hematin crystal formation (IR bands 1663 and 1210 cm^–1)” value in [2] is given as “unable to inhibit β-hematin crystal formation”. The “parasite growth inhibition of ATV in the absence or presence of metal precursors” value in [3] is recorded as “did not observe a difference”. Besides, the logD – broadly, the decadic logarithm of the distribution of all forms, ionised or not, between an organic phase and buffer at a given pH – at 18 h in data set [4] (pH 5) is -1.17; in data set [4] (pH 7), -1.15. Also, the IC50 – broadly, the concentration that gives 50% inhibition – in [6] (Plasmodium falciparum) worked out at 2.1 ± 0.9 nM.

On to `O=C1C([O][Cu]([PH](c2ccccc2)(c2ccccc2)c2ccccc2)[PH](c2ccccc2)(c2ccccc2)c2ccccc2)=C([C@H]2CC[C@H](c3ccc(Cl)cc3)CC2)C(=O)c2ccccc21` [Complex 3, [Cu(ATV)(PPh3)2]], for which the “parasite growth inhibition after 72 h incubation in cell culture medium versus freshly prepared samples (0 h)” value in [7] is listed as “remained unchanged”. In the data set “Solubility in solvents”, the “solubility in common organic solvents” value is given as “had enough solubility”; the “solubility in methanol, ethanol, and acetonitrile” value (from here on “solubility in methanol, ethanol”) was “partially soluble”. Further, the “cell viability (cytotoxicity) after 72 h incubation in cell culture medium versus freshly prepared samples (0 h)” value with J774 cell line is reported as “remained unchanged”. Moreover, the “log D pH 5” value in [4] (pH 5) was “–5.18”. Besides, in data set [4] (pH 7), the “log D pH 7” value stood at 1.06. Also, the IC50 in [6] is 26.3 ± 6.9 nM.

With [Ag(ATV)(PPh3)2] [Complex 1], the “parasite growth inhibition after 72 h incubation in cell culture medium versus freshly prepared samples (0 h)” value in [7] is recorded as “remained unchanged”. In the data set “Solubility in solvents”, the “solubility in common organic solvents” value was “had enough solubility”; the “solubility in methanol, ethanol” value is “partially soluble”. In the data set on J774 cell line, the “cell viability (cytotoxicity) after 72 h incubation in cell culture medium versus freshly prepared samples (0 h)” value was “became less cytotoxic”. Further, the “log D pH 5” value in [4] (pH 5) is “–2.12”. In [4] (pH 7), the “log D pH 7” value is 0.08. In data set [6], the IC50 worked out at 26.5 ± 7.8 nM.

As for [Au(ATV)(PPh3)]·2H2O [Complex 2], the “parasite growth inhibition after 72 h incubation in cell culture medium versus freshly prepared samples (0 h)” value in data set [7] is “reduced”. For the same compound, in the data set “Solubility in solvents”, the “solubility in common organic solvents” value was “had enough solubility”; the “solubility in methanol, ethanol” value is listed as “partially soluble”. Moreover, in the data set on J774 cell line, the “cell viability (cytotoxicity) after 72 h incubation in cell culture medium versus freshly prepared samples (0 h)” value is on record as “remained unchanged”. Besides, the “log D pH 5” value in data set [4] (pH 5) was “–1.87”. In data set [4] (pH 7), the “log D pH 7” value is “–1.71”. The IC50 in data set [6] is 5.2 ± 2.2 nM.

These data come from paper PMC11409218, “Metal(triphenylphosphine)-atovaquone Complexes: Synthesis, Antimalarial Activity, and Suppression of Heme Detoxification” (Inorganic Chemistry, 2024).
